Test results: patent US10975068B2, “6-aminopyridin-3-yl thiazoles as modulators of RORγT” (Janssen Pharmaceutica NV, priority 2016, dated 2021)
Like-named read-outs stand apart in the source and are kept apart here.

Assays:
[1] = biological target: full-length human RORγt (Homo sapiens (Human), UniProt P51449); assay: RORγt (full-length human) reporter assay, Conditions B or C; format: cell-based; conditions: for RORγt (FL) Reporter Assay B or C, % inhibition (value marked *): marked *: footnote not given; for IC50: read-out: RORγt (FL) Reporter Assay B or C, IC50; for inhibition at 3 µM: at 3 μM compound concentration
Sequence of full-length human RORγt (P51449 other isoform, or with tags, fused parts or gaps): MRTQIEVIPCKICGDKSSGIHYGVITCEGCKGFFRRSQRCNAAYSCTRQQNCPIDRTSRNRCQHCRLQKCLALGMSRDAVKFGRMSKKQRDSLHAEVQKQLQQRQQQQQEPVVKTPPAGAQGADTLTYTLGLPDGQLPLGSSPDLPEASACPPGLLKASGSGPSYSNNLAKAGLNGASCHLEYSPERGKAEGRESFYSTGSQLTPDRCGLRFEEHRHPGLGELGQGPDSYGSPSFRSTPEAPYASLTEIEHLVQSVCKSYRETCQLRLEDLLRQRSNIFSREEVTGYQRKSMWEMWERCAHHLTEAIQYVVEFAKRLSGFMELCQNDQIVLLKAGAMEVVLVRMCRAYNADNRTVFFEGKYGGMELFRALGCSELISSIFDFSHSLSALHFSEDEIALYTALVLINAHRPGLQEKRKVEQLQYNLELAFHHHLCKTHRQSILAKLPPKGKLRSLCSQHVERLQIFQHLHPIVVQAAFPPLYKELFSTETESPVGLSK
Procedure, shortened: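 HEK293T cells transiently co-transfected with GAL4-DBD–full-length human RORγt (nt 142-1635, NM_001001523.1) plus GAL4-firefly and CMV-Renilla luciferase reporters; compounds added 4-6 h post-transfection for 16-20 h in 1.3% FBS, 0.1% DMSO. Firefly signal normalized to DMSO and saturating reference compound, then to Renilla; IC50 from concentration plots.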

[2] = biological target: human RORγt ligand binding domain (RORγt LBD) (Homo sapiens (Human), UniProt P51449); assay: RORγt ThermoFluor® assay (thermal shift binding); conditions: read-out: ThermoFluor® Assay, Kd
Sequence of human RORγt ligand binding domain (RORγt LBD) (P51449 other isoform, or with tags, fused parts or gaps): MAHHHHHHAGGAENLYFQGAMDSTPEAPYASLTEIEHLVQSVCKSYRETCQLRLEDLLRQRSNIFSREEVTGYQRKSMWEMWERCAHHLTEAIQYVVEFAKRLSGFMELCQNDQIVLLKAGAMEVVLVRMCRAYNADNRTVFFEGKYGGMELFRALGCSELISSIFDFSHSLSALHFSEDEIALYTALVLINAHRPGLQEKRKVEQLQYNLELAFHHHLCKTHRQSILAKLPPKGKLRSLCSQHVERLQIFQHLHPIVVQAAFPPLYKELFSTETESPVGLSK
Procedure, shortened: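 His-tagged human RORγt LBD (0.065 mg/mL) with 60 μM 1,8-ANS in 100 mM Hepes pH 7.0, 10 mM NaCl, 2.5 mM GSH, 0.002% Tween-20 was heated at 1 °C/min.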

[3] = read-out: RORγt (FL) Reporter Assay B or C, % inhibition

Row | RORγt (FL) Reporter Assay B or C, % inhibition (value marked *) ([1]; Conditions B or C) | IC50 ([1]; Conditions B or C) [nM] | Kd [2] [nM] | inhibition at 3 µM [1, 3] [%] | IC50 [1] [nM] | inhibition at 0.33 µM ([1]; at 0.33 μM compound concentration, read-out: RORγt (FL) Reporter Assay B or C, % inhibition) [%] | SMILES
1 | 104* % | 11 | 3 | – | – | – | CC[C@@H](Nc1cc(C(F)(F)F)c(-c2sc(C(=O)NCC(C)(C)O)nc2C(=O)N2CCC[C@@H]2C)cn1)C1CC1 (relative stereo) [Example 129, 5-(6-(((R*)-1-Cyclopropylpropyl)amino)-4-(trifluoromethyl)pyridin-3-yl)-N-(2-hydroxy-2-methylpropyl)-4-((S)-2-methylpyrrolidine-1-carbonyl)thiazole-2-carboxamide]
2 | 117* % | 6.6 | 0.97 | – | – | – | C[C@H]1CC(F)(F)CN1C(=O)c1nc(C(=O)NCC(C)(C)O)sc1-c1cnc(NC(C2CC2)C2CC2)cc1C(F)F [Example 177, (S)-5-(6-((Dicyclopropylmethyl)amino)-4-(difluoromethyl)pyridine-3-yl)-4-(4,4-difluoro-2-methylpyrrolidine-1-carbonyl)-N-(2-hydroxy-2-methylpropyl)thiazole-2-carboxamide]
3 | – | – | 1.2 | 106 | 12 | – | C[C@H]1CCCN1C(=O)c1nc(C(=O)NCC(C)(O)C(F)(F)F)sc1-c1cnc(NC(C)(C)C)cc1C(F)(F)F (stereo partly drawn) [Example 357, 5-(6-(tert-Butylamino)-4-(trifluoromethyl)pyridin-3-yl)-4-((S)-2-methylpyrrolidine-1-carbonyl)-N-(3,3,3-trifluoro-2-hydroxy-2-methylpropyl)thiazole-2-carboxamide]
4 | – | – | 0.15 | – | 8 | – | C[C@H]1CCCN1C(=O)c1nc(C(=O)N[C@@H]2CCC[C@H]2O)sc1-c1cnc(NC(C)(C)C)cc1C(F)(F)F [Example 351, 5-[6-(tert-Butylamino)-4-(trifluoromethyl)-3-pyridyl]-N-[(1R,2R)-2-hydroxycyclopentyl]-4-[(2S)-2-methylpyrrolidine-1-carbonyl]thiazole-2-carboxamide]
5 | 101* % | 37 | 2.8 | – | – | – | C[C@H](Nc1cc(C(F)F)c(-c2sc(C(=O)NC3CS(=O)(=O)C3)nc2C(=O)N2CC(F)(F)C[C@@H]2C)cn1)C(F)(F)F [Example 192, 4-((S)-4,4-Difluoro-2-methylpyrrolidine-1-carbonyl)-5-(4-(difluoromethyl)-6-(((S)-1,1,1-trifluoropropan-2-yl)amino)pyridine-3-yl)-N-(1,1-dioxidothietan-3-yl)thiazole-2-carboxamide]
6 | – | – | 8.1 | 111 | 110 | – | C[C@H](CO)NC(=O)c1nc(C(=O)N2CCC[C@@H]2C)c(-c2cnc(N[C@@H](C)C(F)(F)F)cc2C(F)F)s1 [Example 284, 5-(4-(Difluoromethyl)-6-(((S)-1,1,1-trifluoropropan-2-yl)amino)pyridin-3-yl)-N—((R)-1-hydroxypropan-2-yl)-4-((S)-2-methylpyrrolidine-1-carbonyl)thiazole-2-carboxamide]
7 | 111* % | 13 | 3.7 | – | – | – | C[C@H]1CCCN1C(=O)c1nc(C(=O)NCC2(O)CCC2)sc1-c1cnc(NC2CCCC2)cc1C(F)F [Example 71, (S)-5-(6-(Cyclopentylamino)-4-(difluoromethyl)pyridin-3-yl)-N-((1-hydroxycyclobutyl)methyl)-4-(2-methylpyrrolidine-1-carbonyl)thiazole-2-carboxamide]
8 | 115* % | 12 | 0.36 | – | – | – | CCC(C)(C)Nc1cc(C(F)F)c(-c2sc(C(=O)NCC(C)(C)O)nc2C(=O)N2CC(F)(F)C[C@@H]2C)cn1 [Example 94, (S)-4-(4,4-Difluoro-2-methylpyrrolidine-1-carbonyl)-5-(4-(difluoromethyl)-6-(tert-pentylamino)pyridin-3-yl)-N-(2-hydroxy-2-methylpropyl)thiazole-2-carboxamide]
9 | 99* % | 7.6 | 3.3 | – | – | – | C[C@H](Nc1cc(C(F)(F)F)c(-c2sc(C(=O)NCC3(O)CCC3)nc2C(=O)N2CCC[C@@H]2C)cn1)C1CC1 [Example 49, 5-(6-(((S)-1-Cyclopropylethyl)amino)-4-(trifluoromethyl)pyridin-3-yl)-N-((1-hydroxycyclobutyl)methyl)-4-((S)-2-methylpyrrolidine-1-carbonyl)thiazole-2-carboxamide]
10 | – | – | 0.97 | 109 | 2.9 | – | C[C@H]1CCCN1C(=O)c1nc(C(=O)NC(C)(C)CO)sc1-c1cnc(NC(C)(C)C)cc1C(F)(F)F [Example 339, 5-[6-(tert-Butylamino)-4-(trifluoromethyl)-3-pyridyl]-N-(2-hydroxy-1,1-dimethyl-ethyl)-4-[(2S)-2-methylpyrrolidine-1-carbonyl]thiazole-2-carboxamide]
11 | – | – | 1.7 | 110 | 13 | – | C[C@H]1CCCN1C(=O)c1nc(C(=O)N[C@H]2CC[C@H](O)C2)sc1-c1cnc(NC(C)(C)C)cc1C(F)F [Example 414, 5-[6-(tert-Butylamino)-4-(difluoromethyl)-3-pyridyl]-N-[(1S,3S)-3-hydroxycyclopentyl]-4-[(2S)-2-methylpyrrolidine-1-carbonyl]thiazole-2-carboxamide]
12 | – | – | 4.3 | 109 | 34 | – | C[C@H](Nc1cc(C(F)F)c(-c2sc(C(=O)NC3CCOCC3)nc2C(=O)N2CCC[C@@H]2C)cn1)C(F)(F)F [Example 287, 5-(4-(Difluoromethyl)-6-(((S)-1,1,1-trifluoropropan-2-yl)amino)pyridin-3-yl)-4-((S)-2-methylpyrrolidine-1-carbonyl)-N-(tetrahydro-2H-pyran-4-yl)thiazole-2-carboxamide]
13 | – | – | 1.9 | 122 | 4.6 | – | C[C@H]1CCCN1C(=O)c1nc(C(=O)N[C@@H]2CCOC2)sc1-c1cnc(NC(C)(C)C)cc1C(F)(F)F [Example 373, 5-[6-(tert-Butylamino)-4-(trifluoromethyl)-3-pyridyl]-4-[(2S)-2-methylpyrrolidine-1-carbonyl]-N-[(3R)-tetrahydrofuran-3-yl]thiazole-2-carboxamide]
14 | 112* % | 26 | 2.2 | – | – | – | C[C@H](Nc1cc(C(F)(F)F)c(-c2sc(C(=O)NCC(C)(C)O)nc2C(=O)N2CC(F)(F)C[C@@H]2C)cn1)C(F)(F)F [Example 110, 4-((S)-4,4-Difluoro-2-methylpyrrolidine-1-carbonyl)-N-(2-hydroxy-2-methylpropyl)-5-(4-(trifluoromethyl)-6-(((S)-1,1,1-trifluoropropan-2-yl)amino)pyridin-3-yl)thiazole-2-carboxamide]
15 | – | – | 2 | 114 | 34 | – | CC[C@H](Nc1cc(C(F)F)c(-c2sc(C(=O)NC3CCOCC3)nc2C(=O)N2CCC[C@@H]2C)cn1)C(F)(F)F [Example 394, 5-[4-(Difluoromethyl)-6-[[(1S)-1-(trifluoromethyl)propyl]amino]-3-pyridyl]-4-[(2S)-2-methylpyrrolidine-1-carbonyl]-N-tetrahydropyran-4-yl-thiazole-2-carboxamide]
16 | – | – | 9.9 | 102 | 130 | – | C[C@H](Nc1cc(C(F)F)c(-c2sc(C(=O)N[C@@H]3CC[C@H]3O)nc2C(=O)N2CCC[C@@H]2C)cn1)C(F)(F)F (relative stereo) [Example 387, 5-(4-(Difluoromethyl)-6-(((S)-1,1,1-trifluoropropan-2-yl)amino)pyridin-3-yl)-N-(1R*,2R*)-2-hydroxycyclobutyl)-4-((S)-2-methylpyrrolidine-1-carbonyl)thiazole-2-carboxamide]
17 | – | – | 2.5 | – | 9.5 | 113 | C[C@H]1CC(F)(F)CN1C(=O)c1nc(C(=O)N[C@H]2C[C@H](O)C2)sc1-c1cnc(NC(C)(C)C)cc1C(F)F [Example 429, 5-(6-(tert-Butylamino)-4-(difluoromethyl)pyridin-3-yl)-4-((S)-4,4-difluoro-2-methylpyrrolidine-1-carbonyl)-N-((1r,3S)-3-hydroxycyclobutyl)thiazole-2-carboxamide]
18 | – | – | 2.1 | 105 | 18 | – | CC[C@H](Nc1cc(C(F)F)c(-c2sc(C(=O)N[C@@H](C)C(C)(C)O)nc2C(=O)N2CCC[C@@H]2C)cn1)C(F)(F)F [Example 272, 5-[4-(Difluoromethyl)-6-[[(1S)-1-(trifluoromethyl)propyl]amino]-3-pyridyl]-N-[(1S)-2-hydroxy-1,2-dimethyl-propyl]-4-[(2S)-2-methylpyrrolidine-1-carbonyl]thiazole-2-carboxamide]
19 | – | – | 0.91 | 103 | 11 | – | C[C@H](Nc1cc(C(F)F)c(-c2sc(C(=O)NCC(C)(C)O)nc2C(=O)N2CCC[C@@H]2C)cn1)C(C)(C)C [Example 299, 5-(4-(Difluoromethyl)-6-(((S)-3,3-dimethylbutan-2-yl)amino)pyridin-3-yl)-N-(2-hydroxy-2-methylpropyl)-4-((S)-2-methylpyrrolidine-1-carbonyl)thiazole-2-carboxamide]
